Patent publication US20260008783A1, “MODULATORS OF FSHR AND USES THEREOF” (Celmatix Inc., priority 2022, published 2026)

Molecular target: T1, Follicle Stimulating Hormone Receptor (FSHR) (Homo sapiens, UniProt P23945)
T1 construct: HA (N); expressed in transfected cells; host or cells: CHO-K1, transient transfection, pHM6 vector (CMV promoter)
T1 sequence (P23945 18-695): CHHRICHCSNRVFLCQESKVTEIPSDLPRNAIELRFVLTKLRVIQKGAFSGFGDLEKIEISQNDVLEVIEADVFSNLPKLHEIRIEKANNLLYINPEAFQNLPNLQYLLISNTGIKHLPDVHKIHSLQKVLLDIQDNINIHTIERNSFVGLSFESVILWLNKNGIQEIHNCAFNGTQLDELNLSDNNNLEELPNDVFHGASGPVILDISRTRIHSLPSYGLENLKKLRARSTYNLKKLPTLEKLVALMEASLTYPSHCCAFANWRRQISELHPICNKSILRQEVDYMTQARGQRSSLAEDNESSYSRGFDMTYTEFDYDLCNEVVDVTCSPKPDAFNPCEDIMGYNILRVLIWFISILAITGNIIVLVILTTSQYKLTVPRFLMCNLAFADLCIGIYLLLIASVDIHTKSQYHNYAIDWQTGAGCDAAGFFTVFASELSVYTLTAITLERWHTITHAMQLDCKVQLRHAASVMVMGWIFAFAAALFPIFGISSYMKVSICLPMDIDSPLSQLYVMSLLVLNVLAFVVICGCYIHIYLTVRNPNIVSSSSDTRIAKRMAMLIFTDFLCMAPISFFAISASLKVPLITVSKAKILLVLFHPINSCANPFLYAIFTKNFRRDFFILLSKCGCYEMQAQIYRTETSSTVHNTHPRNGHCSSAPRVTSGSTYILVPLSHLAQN
Test: HTRF cAMP agonist assay, FSHR, transiently transfected CHO-K1 cells
Assay type: cell-based
Conditions: CHO-K1 cells transiently expressing human FSHR, read-out: IC50 FSHR LANCE CAMP

Row | IC50 [nM] | SMILES
1 | 26.6 | COc1cc2c(cc1-c1cncc(C(N)=O)c1)-c1c(c(C(=O)N3COCC3(C)C)nn1-c1cc(Cl)cc(Cl)c1)CCO2 [Compound 12-11]
2 | 228 | COc1cc2c(cc1-c1cncc(C(N)=O)c1)-c1c(c(C(=O)N3CCNC(=O)C3(C)C)nn1-c1cc(Cl)cc(Cl)c1)S(=O)(=O)C2 [Compound 12-12]
3 | 4.98 | COc1cc2c(cc1-c1cncc(C(N)=O)c1)-c1c(c(C(=O)N3[C@H](C)CNC[C@@H]3C)nn1-c1cc(Cl)cc(Cl)c1)SC2 [Compound 12-13]
4 | 3.09 | COc1cc2c(cc1-c1cncc(C(N)=O)c1)-c1c(c(C(=O)N3COCC3(C)C)nn1-c1cc(Cl)cc(Cl)c1)SC2 [Compound 12-15]
5 | 20.9 | COc1cc2c(cc1-c1cncc(C(N)=O)c1)-c1c(c(C(=O)N3CCNC(=O)C3(C)C)nn1-c1cc(Cl)cc(Cl)c1)SC2 [Compound 12-16]
6 | 66.8 | COc1cc2c(cc1-c1cncc(C(N)=O)c1)-c1c(c(C(=O)N3CCNC(=O)C3(C)C)nn1-c1cc(Cl)cc(Cl)c1)OC2 [Compound 12-18]
7 | 36.7 | COc1cc2c(cc1-c1cncc(C(N)=O)c1)-c1c(c(C(=O)N3CCNC(=O)C3(C)C)nn1-c1ccsc1)CC2 [Compound 12-23, 5-[3-(2,2-dimethyl-3-oxo-piperazine-1-carbonyl)-7-methoxy-1-(3-thienyl)-4,5-dihydrobenzo[g]indazol-8-yl]pyridine-3-carboxamide]
8 | 6740 | CC1(C)C(=O)NCCN1C(=O)c1nn(-c2ccccn2)c2c1CCc1ccc(-c3cccnc3)cc1-2 [Compound 13-01, 3,3-dimethyl-4-[1-(2-pyridyl)-8-(3-pyridyl)-4,5-dihydrobenzo[g]indazole-3-carbonyl]piperazin-2-one]
9 | 2130 | COc1cc2c(cc1-c1cncc(C(N)=O)c1)-c1c(c(C(=O)N3CCNC(=O)C3(C)C)nn1CC(C)C)CC2 [Compound 13-09, 5-[3-(2,2-dimethyl-3-oxo-piperazine-1-carbonyl)-1-isobutyl-7-methoxy-4,5-dihydrobenzo[g]indazol-8-yl]pyridine-3-carboxamide]
10 | 13800 | COc1cc2c(cc1-c1cncc(C(N)=O)c1)-c1c(c(C(=O)N3CCNC(=O)C3(C)C)nn1CC(C)C)CC2 [Compound 14-03]
11 | 75.8 | COc1cc2c(cc1-c1cncc(C(N)=O)c1)-c1c(c(C(=O)N3CCNC(=O)C3(C)C)nn1-c1ccccn1)CC2 [Compound 15-01, 5-[3-(2,2-dimethyl-3-oxo-piperazine-1-carbonyl)-7-methoxy-1-(2-pyridyl)-4,5-dihydrobenzo[g]indazol-8-yl]pyridine-3-carboxamide]
12 | 477 | COc1cc2c(cc1-c1cccnc1)-c1c(c(C(=O)N3CCNC(=O)C3(C)C)nn1-c1ccccn1)CC2 [Compound 15-02]
13 | 31.1 | COc1cc2c(cc1-c1cccnc1)-c1c(c(C(=O)N3CCNC(=O)C3(C)C)nn1-c1cc(Cl)cc(Cl)c1)CC2 [Compound 15-03, 4-[1-(3,5-dichlorophenyl)-7-methoxy-8-(3-pyridyl)-4,5-dihydrobenzo[g]indazole-3-carbonyl]-3,3-dimethyl-piperazin-2-one]
14 | 381 | CC1(C)C(=O)NCCN1C(=O)c1nn(-c2cc(Cl)cc(Cl)c2)c2c1CCc1ccc(-c3cncc(C(N)=O)c3)cc1-2 [Compound 15-04, 5-[1-(3,5-dichlorophenyl)-3-(2,2-dimethyl-3-oxo-piperazine-1-carbonyl)-4,5-dihydrobenzo[g]indazol-8-yl]pyridine-3-carboxamide]
15 | 363 | COc1cc2c(cc1-c1cncc(C(N)=O)c1)-c1c(c(C(=O)N3CCNC(=O)C3(C)C)nn1-c1ccncn1)CC2 [Compound 15-05, 5-(3-(2,2-dimethyl-3-oxopiperazine-1-carbonyl)-7-methoxy-1-(pyrimidin-4-yl)-4,5-dihydro-1H-benzo[g]indazol-8-yl)nicotinamide]
16 | 3620 | COc1cc2c(cc1-c1cncc(C(N)=O)c1)-c1c(c(C(=O)N3CCNC(=O)C3(C)C)nn1-c1cccnn1)CC2 [Compound 15-06]
17 | 7.32 | COc1cc2c(cc1-c1cccnc1)-c1c(c(C(=O)N3CCOCC3(C)C)nn1-c1cc(F)cc(F)c1)CO2 [Compound 15-08]
18 | 370 | COc1cc2c(cc1-c1ccncc1)-c1c(c(C(=O)N3CCOCC3(C)C)nn1-c1cc(F)cc(F)c1)CC2 [Compound 15-09, [1-(3,5-difluorophenyl)-7-methoxy-8-(4-pyridyl)-4,5-dihydrobenzo[g]indazol-3-yl]-(3,3-dimethylmorpholin-4-yl)methanone]
19 | 21.1 | COc1cc2c(cc1-c1ccc(=N)[nH]c1)-c1c(c(C(=O)N3CCOCC3(C)C)nn1-c1cc(F)cc(F)c1)CC2 [Compound 15-10]
